Data reported in ChEMBL document CHEMBL1201862, “PubChem BioAssay data set” (2004).
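Tested at 5 concentrations; 48 h exposure; 96-well plates; endpoints linearly interpolated, else capped at highest concentration. Here, GI50 denotes the concentration required for 50% inhibition of growth.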 The source made the active and inactive calls. Cut-off read from the data, not from the text of the source: active = GI50 up to about 1.1 µM and inactive = higher. Residues, ends and D or L forms follow the SMILES beside them. *: point of attachment. Boc = CC(C)(C)OC(=O)*; OBn = c1ccc(CO*)cc1

Experiments:
Assay in all cases: inhibition of tumour cell growth, NCI panel, 48 h
[1] = test system: ACHN
[2] = test system: Hs-578T
[3] = test system: OVCAR-4
[4] = test system: UACC-62
[5] = test system: SNB-19
[6] = test system: UO-31
[7] = test system: HCT-15
[8] = test system: NCI/ADR-RES
[9] = test system: SK-MEL-5
[10] = test system: SNB-75
[11] = test system: LOX IMVI
[12] = test system: UACC-257
[13] = test system: SK-MEL-2
[14] = test system: SR
[15] = test system: A549
[16] = test system: SF-295
[17] = test system: K562
[18] = test system: NCI-H226
[19] = test system: SN12C
[20] = test system: HCT-116
[21] = test system: SF-268
[22] = test system: MDA-MB-435
[23] = test system: NCI-H23
[24] = test system: U-251
[25] = test system: HL-60
[26] = test system: OVCAR-5
[27] = test system: Malme-3M
[28] = test system: IGROV-1
[29] = test system: MOLT-4
[30] = test system: SW-620
[31] = test system: PC-3
[32] = test system: NCI-H522
[33] = test system: SF-539
[34] = test system: SK-MEL-28
[35] = test system: CCRF-CEM
[36] = test system: KM12
[37] = test system: DU-145
[38] = test system: BT-549
[39] = test system: CAKI-1
[40] = test system: M14
[41] = test system: SK-OV-3
[42] = test system: A498
[43] = test system: MDA-MB-231
[44] = test system: 786-0
[45] = test system: T47D
[46] = test system: RXF 393
[47] = test system: EKVX
[48] = test system: HOP-92
[49] = test system: OVCAR-8
[50] = test system: HT-29
[51] = test system: MCF7
[52] = test system: MDA-N
[53] = test system: COLO 205
[54] = test system: TK-10
[55] = test system: NCI-H460
[56] = test system: HOP-62
[57] = test system: OVCAR-3
[58] = test system: RPMI-8226
[59] = test system: HCC 2998

CC(NC(=O)CNC(=O)OC(C)(C)C)C(=O)NC(Cc1ccccc1)C(=O)OCc1ccccc1 (stereo not drawn) (Boc-Gly-Ala-Phe-OBn; configuration not given here)
GI50 [1]: > 100 µM (inactive)
GI50 [2]: 11.2 µM (inactive)
GI50 [3]: > 100 µM (inactive)
GI50 [4]: > 100 µM (inactive)
GI50 [5]: > 100 µM (inactive)
GI50 [6]: > 100 µM (inactive)
GI50 [7]: > 100 µM
GI50 [8]: > 100 µM (inactive)
GI50 [9]: > 100 µM (inactive)
GI50 [10]: 56.2 µM (inactive)
GI50 [11]: 7.23 µM (inactive)
GI50 [12]: > 100 µM (inactive)
GI50 [13]: > 100 µM (inactive)
GI50 [14]: 23.8 µM (inactive)
GI50 [15]: > 100 µM (inactive)
GI50 [16]: > 100 µM (inactive)
GI50 [17]: 40.3 µM (inactive)
GI50 [18]: 75.7 µM (inactive)
GI50 [19]: > 100 µM (inactive)
GI50 [20]: 14.9 µM (inactive)
GI50 [21]: 86.9 µM (inactive)
GI50 [22]: > 100 µM (inactive)
GI50 [23]: > 100 µM (inactive)
GI50 [24]: > 100 µM (inactive)
GI50 [25]: 36.3 µM (inactive)
GI50 [26]: > 100 µM (inactive)
GI50 [27]: 63.4 µM (inactive)
GI50 [28]: > 100 µM (inactive)
GI50 [29]: 36 µM (inactive)
GI50 [30]: > 100 µM (inactive)
GI50 [31]: > 100 µM (inactive)
GI50 [32]: 68.4 µM (inactive)
GI50 [33]: > 100 µM (inactive)
GI50 [34]: 36.5 µM (inactive)
GI50 [35]: 40.9 µM (inactive)
GI50 [36]: > 100 µM (inactive)
GI50 [37]: > 100 µM (inactive)
GI50 [38]: > 100 µM (inactive)
GI50 [39]: > 100 µM (inactive)
GI50 [40]: > 100 µM (inactive)
GI50 [41]: > 100 µM (inactive)
GI50 [42]: > 100 µM (inactive)
GI50 [43]: > 100 µM (inactive)
GI50 [44]: 27.9 µM (inactive)
GI50 [45]: > 100 µM (inactive)
GI50 [46]: > 100 µM (inactive)
GI50 [47]: > 100 µM (inactive)
GI50 [48]: > 100 µM (inactive)
GI50 [49]: > 100 µM (inactive)
GI50 [50]: 95.9 µM (inactive)
GI50 [51]: > 100 µM (inactive)
GI50 [52]: > 100 µM (inactive)
GI50 [53]: > 100 µM (inactive)
GI50 [54]: > 100 µM (inactive)

CCc1nn(CN2CCOCC2)c(=S)n1/N=C/c1ccc(-c2ccc(Cl)cc2)o1
GI50 [1]: > 100 µM (inactive)
GI50 [2]: > 100 µM (inactive)
GI50 [3]: > 100 µM (inactive)
GI50 [6]: > 100 µM (inactive)
GI50 [7]: > 100 µM
GI50 [8]: > 100 µM (inactive)
GI50 [9]: > 100 µM (inactive)
GI50 [10]: 50.8 µM (inactive)
GI50 [11]: > 100 µM (inactive)
GI50 [12]: > 100 µM (inactive)
GI50 [13]: > 100 µM (inactive)
GI50 [14]: 80.5 µM (inactive)
GI50 [15]: > 100 µM (inactive)
GI50 [16]: > 100 µM (inactive)
GI50 [17]: > 100 µM (inactive)
GI50 [18]: > 100 µM (inactive)
GI50 [20]: > 100 µM (inactive)
GI50 [21]: > 100 µM (inactive)
GI50 [22]: > 100 µM (inactive)
GI50 [23]: > 100 µM (inactive)
GI50 [24]: > 100 µM (inactive)
GI50 [55]: > 100 µM (inactive)
GI50 [25]: 81.1 µM (inactive)
GI50 [26]: > 100 µM (inactive)
GI50 [28]: > 100 µM (inactive)
GI50 [29]: > 100 µM (inactive)
GI50 [30]: > 100 µM (inactive)
GI50 [31]: > 100 µM (inactive)
GI50 [32]: > 100 µM (inactive)
GI50 [33]: > 100 µM (inactive)
GI50 [34]: > 100 µM (inactive)
GI50 [36]: > 100 µM (inactive)
GI50 [56]: > 100 µM (inactive)
GI50 [37]: > 100 µM (inactive)
GI50 [38]: > 100 µM (inactive)
GI50 [39]: > 100 µM (inactive)
GI50 [40]: > 100 µM (inactive)
GI50 [42]: > 100 µM (inactive)
GI50 [43]: > 100 µM (inactive)
GI50 [44]: > 100 µM (inactive)
GI50 [45]: > 100 µM (inactive)
GI50 [46]: > 100 µM (inactive)
GI50 [47]: > 100 µM (inactive)
GI50 [48]: > 100 µM (inactive)
GI50 [49]: > 100 µM (inactive)
GI50 [57]: > 100 µM (inactive)
GI50 [50]: > 100 µM (inactive)
GI50 [51]: > 100 µM (inactive)
GI50 [52]: > 100 µM (inactive)
GI50 [58]: 51.5 µM (inactive)
GI50 [54]: > 100 µM (inactive)

CN(O)C(=O)/C=C/c1ccc(OCc2cccc(Cl)c2)cc1
GI50 [1]: 14.5 µM (inactive)
GI50 [2]: 61.7 µM (inactive)
GI50 [3]: 19.6 µM (inactive)
GI50 [4]: 15 µM (inactive)
GI50 [5]: 42.5 µM (inactive)
GI50 [6]: 10.1 µM (inactive)
GI50 [7]: 12.9 µM
GI50 [8]: 19.7 µM (inactive)
GI50 [9]: 24.2 µM (inactive)
GI50 [10]: 26.4 µM (inactive)
GI50 [11]: 11.2 µM (inactive)
GI50 [12]: 51.8 µM (inactive)
GI50 [59]: 23.6 µM (inactive)
GI50 [13]: 23.8 µM (inactive)
GI50 [14]: 7.06 µM (inactive)
GI50 [15]: 21.2 µM (inactive)
GI50 [16]: 22.8 µM (inactive)
GI50 [17]: 36.1 µM (inactive)
GI50 [18]: 21.4 µM (inactive)
GI50 [19]: 20.1 µM (inactive)
GI50 [20]: 16.8 µM (inactive)
GI50 [21]: 23.9 µM (inactive)
GI50 [22]: 32.2 µM (inactive)
GI50 [23]: 16.3 µM (inactive)
GI50 [24]: 22 µM (inactive)
GI50 [55]: 16.5 µM (inactive)
GI50 [25]: 18 µM (inactive)
GI50 [26]: 39.7 µM (inactive)
GI50 [28]: 17.3 µM (inactive)
GI50 [29]: 8.77 µM (inactive)
GI50 [30]: 26.9 µM (inactive)
GI50 [31]: 24.5 µM (inactive)
GI50 [32]: 25.7 µM (inactive)
GI50 [33]: 29.2 µM (inactive)
GI50 [34]: 38.5 µM (inactive)
GI50 [35]: 8.26 µM (inactive)
GI50 [36]: 17.7 µM (inactive)
GI50 [56]: 24.4 µM (inactive)
GI50 [37]: 20.8 µM (inactive)
GI50 [38]: 21.8 µM (inactive)
GI50 [39]: 26.4 µM (inactive)
GI50 [40]: 28 µM (inactive)
GI50 [41]: 25.6 µM (inactive)
GI50 [42]: 17 µM (inactive)
GI50 [43]: 43.9 µM (inactive)
GI50 [44]: 18.7 µM (inactive)
GI50 [45]: 20.1 µM (inactive)
GI50 [46]: 30.7 µM (inactive)
GI50 [47]: 26.5 µM (inactive)
GI50 [48]: 24.3 µM (inactive)
GI50 [49]: 16.3 µM (inactive)
GI50 [57]: 38.6 µM (inactive)
GI50 [50]: 18 µM (inactive)
GI50 [51]: 48.6 µM (inactive)
GI50 [52]: 43.1 µM (inactive)
GI50 [53]: 28.9 µM (inactive)
GI50 [58]: 27.5 µM (inactive)
GI50 [54]: 48.6 µM (inactive)
